Laboratory results: patent publication US20250188092A1, “RIFAMYCIN ANALOGS” (THE REGENTS OF THE UNIVERSITY OF MICHIGAN, priority 2021, published 2025)
Values after ≈ are worked out from the molar mass of the structure shown. Where two headings read alike, the source gives them in different places.

Assays:
[1] = test system: non-replicating cultures of M. tuberculosis H37Rv transformed with lux ABCDE; assay: microbe, parasite or virus in culture; format: cell-based, Mycobacterium tuberculosis; conditions: for MIC90 / MIC: Mycobacterium tuberculosis, H37RV, ≥90% reduction in luminescence, read-out: MIC90 LORA; for MIC90 LORA/MABA: ratio of LORA MIC90 to MABA MIC90
[2] = test system: M. tuberculosis transformed with luxABCDE; assay: microbe, parasite or virus in culture; format: cell-based, Mycobacterium tuberculosis
[3] = Mycobacterium tuberculosis, 168 h, […], ≥99% reduction in luminescence, read-out: MBC99 Day 7 (Lux Assay) MBC

CO[C@H]1/C=C/O[C@@]2(C)Oc3c(C)c(O)c4c(=O)c(c5oc6cccc(OCc7cccc(CN8CCN(C(=O)CN9CCOCC9)CC8)c7)c6nc-5c4c3C2=O)NC(=O)/C(C)=C\C=C\[C@H](C)[C@H](O)[C@@H](C)[C@@H](O)[C@@H](C)[C@H](OC(C)=O)[C@@H]1C [Compound 11f, (7S,9E,11S,12R,13S,14R,15R,16R,17S,1S,19E,21Z)-2,15,17-Trihydroxy-11-methoxy-3,7,12,14,16,18,22-heptamethyl-32-{[3-({4-[2-(morpholin-4-yl)acetyl]piperazin-1-yl}methyl)phenyl]methoxy}-6,23,37-trioxo-8,27,38-trioxa-24,34-diazahexacyclo[23.11.1.1^4,7.0^5,36.0^26,35.0^28,33]octatriaconta-1(36)2,4,9,19,21,25,28,30,32,34-undecaen-13-yl acetate]
MIC90 LORA Rel to RMP [1]: 0.39
MIC90 [1]: 0.37 µM
MIC90 LORA/MABA [1]: 15
MBC99 Day 7 (Lux Assay) MBC Rel to RMP [2]: 0.11
MBC [2, 3]: 0.084 µM

CO[C@H]1/C=C/O[C@@]2(C)Oc3c(C)c(O)c4c(=O)c(c5oc6cccc(OCc7cccc(CN8CCN(C(=O)Cc9ccccc9)CC8)c7)c6nc-5c4c3C2=O)NC(=O)/C(C)=C\C=C\[C@H](C)[C@H](O)[C@@H](C)[C@@H](O)[C@@H](C)[C@H](OC(C)=O)[C@@H]1C [Compound 11g, (7S,9E,11S,12R,13S,14R,15R,16R,17S,18S,19E,21Z)-2,15,17-Trihydroxy-11-methoxy-3,7,12,14,16,18,22-heptamethyl-6,23,37-trioxo-32-[(3-{[4-(2-phenylacetyl)-piperazin-1-yl]methyl}phenyl)methoxy]-8,27,38-trioxa-24,34-diazahexacyclo[23.11.1.1^4,7.0^5,36.0^26,35.0^28,33]octatriaconta-1(36)2,4,9,19,21,25,28,30,32,34-undecaen-13-yl acetate]
MIC90 LORA Rel to RMP [1]: 1.1
MIC90 [1]: 0.131 µM
MIC90 LORA/MABA [1]: 12
MBC99 Day 7 (Lux Assay) MBC Rel to RMP [2]: 0.06
MBC [2, 3]: 0.044 µM

CO[C@H]1/C=C/O[C@@]2(C)Oc3c(C)c(O)c4c(=O)c(c5oc6cc(N7CCN(CC(C)C)CC7)cc(OCc7cccc(CN8CCN(C(=O)Cn9ccnc9)CC8)c7)c6nc-5c4c3C2=O)NC(=O)/C(C)=C\C=C\[C@H](C)[C@H](O)[C@@H](C)[C@@H](O)[C@@H](C)[C@H](OC(C)=O)[C@@H]1C [Compound 12c, (7S,9E,11S,12R,13S,14R,15R,16R,17S,18S,19E,21Z)-2,15,17-Trihydroxy-32-{[3-({4-[2-(1H-imidazol-1-yl)acetyl]piperazin-1-yl}methyl)phenyl]methoxy}-11-methoxy-3,7,12,14,16,18,22-heptamethyl-30-[4-(2-methylpropyl)piperazin-1-yl]-6,23,37-trioxo-8,27,38-trioxa-24,34-diazahexacyclo[23.11.1.1^4,7.0^5,36.0^26,35.0^28,33]octatriaconta-1(36)2,4,9,19,21,25,28,30,32,34-undecaen-13-yl acetate]
MIC90 LORA Rel to RMP [1]: 0.11
MIC [1]: < 0.016 µM
MBC99 Day 7 (Lux Assay) MBC Rel to RMP [2]: 0.08
MBC [2, 3]: 0.037 µM

CO[C@H]1/C=C/O[C@@]2(C)Oc3c(C)c(O)c4c(=O)c(c5oc6cccc(OCc7ccc(CN8CCOCC8)cc7)c6nc-5c4c3C2=O)NC(=O)/C(C)=C\C=C\[C@H](C)[C@H](O)[C@@H](C)[C@@H](O)[C@@H](C)[C@H](OC(C)=O)[C@@H]1C [Compound 16d, (7S,9E,11S,12R,13S,14R,15R,16R,17S,18S,19E,21Z)-2,15,17-Trihydroxy-11-methoxy-3,7,12,14,16,18,22-heptamethyl-32-({4-[(morpholin-4-yl)methyl]phenyl}methoxy)-6,23,37-trioxo-8,27,38-trioxa-24,34-diazahexacyclo[23.11.1.1^4,7.0^5,36.0^26,35.0^28,33]octatriaconta-1(36)2,4,9,19,21,25,28,30,32,34-undecaen-13-yl acetate]
MIC90 LORA Rel to RMP [1]: 0.62
MIC90 [1]: 0.031 µM
MIC90 LORA/MABA [1]: 8.4
MBC99 Day 7 (Lux Assay) MBC Rel to RMP [2]: 0.20
MBC [2, 3]: 0.092 µM

CO[C@H]1/C=C/O[C@@]2(C)Oc3c(C)c(O)c4c(=O)c(c5oc6cccc(OCc7ccc(CN8CCN(C)CC8)cc7)c6nc-5c4c3C2=O)NC(=O)/C(C)=C\C=C\[C@H](C)[C@H](O)[C@@H](C)[C@@H](O)[C@@H](C)[C@H](OC(C)=O)[C@@H]1C [Compound 16e, (7S,9E,11S,12R,13S,14R,15R,16R,17S,18S,19E,21Z)-2,15,17-trihydroxy-11-methoxy-3,7,12,14,16,18,22-heptamethyl-32-({4-[(4-methylpiperazin-1-yl)methyl]phenyl}methoxy)-6,23,37-trioxo-8,27,38-trioxa-24,34-diazahexacyclo[23.11.1.1^4,7.0^5,36.0^26,35.0^28,33]octatriaconta-1,3,5(36)9,19,21,25,28,30,32,34-undecaen-13-yl acetate]
MIC90 LORA Rel to RMP [1]: 1.3
MIC90 [1]: 0.036 µM
MIC90 LORA/MABA [1]: 5.6
MBC99 Day 7 (Lux Assay) MBC Rel to RMP [2]: 0.14
MBC [2, 3]: 0.06 µM

CO[C@H]1/C=C/O[C@@]2(C)Oc3c(C)c(O)c4c(=O)c(c5oc6cc(N7CCN(CC(C)C)CC7)cc(OCc7ccc(CN8CCOCC8)cc7)c6nc-5c4c3C2=O)NC(=O)/C(C)=C\C=C\[C@H](C)[C@H](O)[C@@H](C)[C@@H](O)[C@@H](C)[C@H](OC(C)=O)[C@@H]1C [Compound 17e, (7S,9E,11S,12R,13S,14R,15R,16R,17S,18S,19E,21Z)-2,15,17-Trihydroxy-11-methoxy-3,7,12,14,16,18,22-heptamethyl-30-[4-(2-methylpropyl)piperazin-1-yl]-32-({4-[(morpholin-4-yl)methyl]phenyl}methoxy)-6,23,37-trioxo-8,27,38-trioxa-24,34-diazahexacyclo[23.11.1.1^4,7.0^5,36.0^26,35.0^28,33]octatriaconta-1(36)2,4,9,19,21,25,28,30,32,34-undecaen-13-yl acetate]
MIC90 LORA Rel to RMP [1]: 0.11
MIC [1]: 0.0094 µM
MIC90 LORA/MABA [1]: 1.9
MBC99 Day 7 (Lux Assay) MBC Rel to RMP [2]: 0.20
MBC [2, 3]: 0.093 µM
MIC90 ([2]; Mycobacterium tuberculosis, 168 h, day 7 of time-kill study): 0.009 µM
MBC ([2]; Mycobacterium tuberculosis, 168 h, day 7 of time-kill study, read-out: MBC99): 0.093 µM
more potent than RMP in terms of day 7 MBC ([2]; day 7): approximately 10 fold

CO[C@H]1/C=C/O[C@@]2(C)Oc3c(C)c(O)c4c(=O)c(c5oc6cc(N7CCN(C(=O)C(C)(C)C)CC7)cc(OCc7ccc(CN8CCOCC8)cc7)c6nc-5c4c3C2=O)NC(=O)/C(C)=C\C=C\[C@H](C)[C@H](O)[C@@H](C)[C@@H](O)[C@@H](C)[C@H](OC(C)=O)[C@@H]1C [Compound 17f, (7S,9E,11S,12R,13S,14R,15R,16R,17S,18S,19E,21Z)-30-[4-(2,2-Dimethylpropanoyl)-piperazin-1-yl]-2,15,17-trihydroxy-11-methoxy-3,7,12,14,16,18,22-heptamethyl-32-({4-[(morpholin-4-yl)methyl]phenyl}methoxy)-6,23,37-trioxo-8,27,38-trioxa-24,34-diazahexacyclo[23.11.1.1^4,7.0^5,36.0^26,35.0^28,33]octatriaconta-1(36)2,4,9,19,21,25,28,30,32,34-undecaen-13-yl acetate]
MIC90 LORA Rel to RMP [1]: 1.8
MIC [1]: 0.369 µM
MIC90 LORA/MABA [1]: 14
MBC [2, 3]: > 0.1 µM

CCC(=O)N1CCN(c2cc(OCc3ccc(CN4CCOCC4)cc3)c3nc4c5c6c7c(C)c(O)c5c(=O)c(c-4oc3c2)NC(=O)/C(C)=C\C=C\[C@H](C)[C@H](O)[C@@H](C)[C@@H](O)[C@@H](C)[C@H](OC(C)=O)[C@H](C)[C@@H](OC)/C=C/O[C@@](C)(O7)C6=O)CC1 [Compound 17g, (7S,9E,11S,12R,13S,14R,15R,16R,17S,18S,19E,21Z)-2,15,17-Trihydroxy-11-methoxy-3,7,12,14,16,18,22-heptamethyl-32-({4-[(morpholin-4-yl)methyl]phenyl}methoxy)-6,23,37-trioxo-30-(4-propanoylpiperazin-1-yl)-8,27,38-trioxa-24,34-diazahexacyclo-[23.11.1.1^4,7.0^5,36.0^26,35.0^28,33]octatriaconta-1(36)2,4,9,19,21,25,28,30,32,34-undecaen-13-yl acetate]
MIC90 LORA Rel to RMP [1]: 0.3
MIC90 [1]: 0.065 µM
MIC90 LORA/MABA [1]: 5.4
MBC [2, 3]: > 0.1 µM

CO[C@H]1/C=C/O[C@@]2(C)Oc3c(C)c(O)c4c(=O)c(c5oc6cc(N7CCN(C8CCN(C)CC8)CC7)cc(OCc7ccc(CN8CCOCC8)cc7)c6nc-5c4c3C2=O)NC(=O)/C(C)=C\C=C\[C@H](C)[C@H](O)[C@@H](C)[C@@H](O)[C@@H](C)[C@H](OC(C)=O)[C@@H]1C [Compound 17h, (7S,9E,11S,12R,13S,14R,15R,16R,17S,18S,19E,21Z)-2,15,17-trihydroxy-11-methoxy-3,7,12,14,16,18,22-heptamethyl-30-[4-(1-methylpiperidin-4-yl)piperazin-1-yl]-32-{[4-(morpholin-4-ylmethyl)phenyl]methoxy}-6,23,37-trioxo-8,27,38-trioxa-24,34-diazahexacyclo-[23.11.1.1^4,7.0^5,36.0^26,35.0^28,33]octatriaconta-1,3,5(36)9,19,21,25,28,30,32,34-undecaen-13-yl acetate]
MIC90 LORA Rel to RMP [1]: 12
MIC90 [1]: 0.318 µM
MIC90 LORA/MABA [1]: 9.0
MBC [2, 3]: > 0.1 µM

CO[C@H]1/C=C/O[C@@]2(C)Oc3c(C)c(O)c4c(=O)c(c5oc6cc(N7CCN(CC(=O)O)CC7)cc(OCc7ccc(CN8CCOCC8)cc7)c6nc-5c4c3C2=O)NC(=O)/C(C)=C\C=C\[C@H](C)[C@H](O)[C@@H](C)[C@@H](O)[C@@H](C)[C@H](OC(C)=O)[C@@H]1C [Compound 17i]
MIC90 LORA Rel to RMP [1]: 9.2
MIC [1]: 0.247 µM (≈ 0.28 µg/mL)
MIC90 LORA/MABA [1]: 9.5
MBC [2, 3]: > 0.1 µM
